Literature values, collected in patent publication US20060173179A1, “Azabenzoxazoles for the treatment of CNS disorders” (Pfizer Inc, priority 2004, published 2006).

Experiments:
[1] = not given; remark: listed apart in the source

O=C1Cc2cc(CCN3CCN(c4nsc5ccccc45)CC3)c(Cl)cc2N1 [Ziprasidone, 5-[2-[4-(1,2-benzisothiazol-3-yl)piperazin-1-yl]ethyl]-6-chloroindolin-2-one]
half-life (in vivo): 6 to 7 h | Oral bioavailability (taken with food): approximately 60% | protein binding [1]: extensive
